Assays:
sirtuin = conditions: reported in Non-Patent Documents 4 and 5; cited from earlier work
SIRT1 enzyme [1] = molecular target: T1, SIRT1 enzyme (Homo sapiens, UniProt Q96EB6); assay: SIRT1 Activity Assay/Drug Discovery kit, Fluorescent: sirtuin activity acceleration by black ginger extracts and fractions (Example 3); assay type: biochemical; conditions: subject sample solution 500 μg/mL, 10 μL/well; FIGS. 1 and 2
T1 construct: purchased BIOMOL International (via COSMO BIO CO., LTD.) AK-555 (kit); SE-239 (enzyme)
T1 sequence (Q96EB6 1-747): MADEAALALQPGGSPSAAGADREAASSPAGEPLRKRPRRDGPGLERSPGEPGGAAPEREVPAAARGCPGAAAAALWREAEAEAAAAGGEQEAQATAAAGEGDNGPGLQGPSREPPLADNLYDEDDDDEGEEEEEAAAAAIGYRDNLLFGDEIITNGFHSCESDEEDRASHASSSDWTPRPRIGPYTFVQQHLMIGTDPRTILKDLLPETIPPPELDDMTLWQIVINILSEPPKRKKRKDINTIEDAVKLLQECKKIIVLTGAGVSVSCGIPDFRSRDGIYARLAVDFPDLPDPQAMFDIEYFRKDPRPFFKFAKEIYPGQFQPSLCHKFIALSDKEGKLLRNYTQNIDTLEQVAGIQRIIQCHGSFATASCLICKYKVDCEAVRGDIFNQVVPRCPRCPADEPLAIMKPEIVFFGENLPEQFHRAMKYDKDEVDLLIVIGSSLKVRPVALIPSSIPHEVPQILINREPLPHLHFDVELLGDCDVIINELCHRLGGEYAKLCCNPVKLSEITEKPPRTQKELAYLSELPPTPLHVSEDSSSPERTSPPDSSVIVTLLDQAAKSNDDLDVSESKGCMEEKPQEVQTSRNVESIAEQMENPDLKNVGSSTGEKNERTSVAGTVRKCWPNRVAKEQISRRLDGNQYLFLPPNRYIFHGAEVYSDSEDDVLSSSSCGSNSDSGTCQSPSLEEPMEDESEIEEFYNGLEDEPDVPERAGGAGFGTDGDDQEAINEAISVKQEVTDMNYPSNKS
Description: The sirtuin activity was measured according to the attached protocol using SIRT1 Activity Assay/Drug Discovery kit, Fluorescent (AK-555, BIOMOL International, Plymouth Meeting, Pa., USA [COSMO BIO CO., LTD., Tokyo]).
All measurement reagents (preserved at −80° C.) were stationed on ice until use to melt the SIRT1 enzyme (SE-239) and 5× Developer II (KI-176) moderately. SIRT1 enzyme was diluted to 0.2 U/μL with an assay buffer (KI-286). Resveratrol and extracts and fragments of the black ginger obtained above were used as subject samples. Solutions of 500 μg/mL were prepared using purified water for hot water extracts and the water phase fraction, and using DMSO for other samples. A solution of 10 μL/well was used for each obtained subject sample. To the control was added either DMSO or purified water instead of a subject sample. The substrate Fluor de Lys-SIRT1 (KI-177; 5 mM) plus a coenzyme NAD^+ (KI-282; 50 mM) were diluted with an assay buffer (KI-286) to obtain a concentration that is 3.33 folds that of the final usage concentration, and used in an amount of 15 μL/well. […] Then, a reaction stop solution Developer II/2 mM nicotinamide was added at 50 μL/well, and the fluorescent probe generated from Developer II was measured (excited wave length 380 nm, fluorescent wave length 460 nm) by a fluorescent plate reader (Tecan Co., Infinite 200) within 60 minutes after the reaction stopped.

SIRT1 enzyme [2] = molecular target: T1, SIRT1 enzyme; assay: SIRT1 fluorescent activity assay: sirtuin activity acceleration by polyalkoxyflavonoid compounds (Example 6); assay type: biochemical; conditions: FIG. 8
Description: The sirtuin activity was measured according to a protocol similar to that of Example 3.
All measurement reagents (preserved at −80° C.) were stationed on ice until use to melt the SIRT1 enzyme (SE-239) and 5× Developer II (KI-176) moderately. SIRT1 enzyme was diluted to 0.2 U/μL with an assay buffer (KI-286). Resveratrol, Compounds 1 to 5 and nobiletin (Funakoshi Co.) were used as subject samples. […] To the control was added DMSO instead of a subject sample. The substrate Fluor de Lys-SIRT1 (KI-177; 5 mM) plus a coenzyme NAD^+ (KI-282; 50 mM) was diluted with an assay buffer (KI-286) to obtain a concentration that is 3.33 folds that of the final use concentration, and used in an amount of 15 μL/well. A subject sample solution (10 μL/well), SIRT1 enzyme solution (0.2 U/μL, 5 μL/well) and an assay buffer (10 μL/well) were added to the measurement microplate and pre-incubated at 37° C. for 5 minutes. The substrate solution that was heated preliminary at 37° C. was added at 25 μL/well, then, further incubated at 37° C. for 10 minutes. Then, a reaction stop solution Developer II/2 mM nicotinamide was added at 50 μL/well, and the fluorescent probe generated from Developer II was measured (excited wave length 360 nm, fluorescent wave length 460 nm) by a fluorescent plate reader (Tecan Co., Infinite 200) within 60 minutes after the reaction stopped.

SMILES	sirtuin activation activity (sirtuin)	sirtuin activity by comparison with the control value (SIRT1 enzyme [1])	SIRT1 activity (SIRT1 enzyme [2]; concentrations of 100 μg/mL and 20 μg/mL)	SIRT1 activity (SIRT1 enzyme [2]; low concentrations of 10 μg/mL and 2 μg/mL)
O=C(/C=C/c1ccc(O)c(O)c1)c1ccc(O)cc1O [butein, 3,4,2′,4′-tetrahydroxychalcone]	weaker than resveratrol			
O=c1c(O)c(-c2ccc(O)c(O)c2)oc2cc(O)ccc12 [fisetin, 3,7,3′,4′-tetrahydroxyflavone]	weaker than resveratrol			
O=C(/C=C/c1ccc(O)cc1)c1ccc(O)cc1O [isoliquiritigenin, 4,2′,4′-trihydroxychalcone]	weaker than resveratrol			
O=c1c(O)c(-c2ccc(O)c(O)c2)oc2cc(O)cc(O)c12 [quercetin, 3,5,7,3′,4′-pentahydroxyflavone]	weaker than resveratrol			
Oc1ccc(C=Cc2cc(O)cc(O)c2)cc1 [resveratrol]	effective in activating sirtuin	enhanced	accelerated	almost no activity was observed
